Experiments:
[1] = Liquid; for mass density / speed of sound: 298.15 K; for mass density: 101.33 kPa, Vibrating tube method; for speed of sound: Sing-around technique in a fixed-path interferometer
[2] = refractive index (Na D-line) (dimensionless); settings: 298.15 K; 101.33 kPa; Liquid; Standard Abbe refractometry
[3] = xn = mol fraction of the nth substance listed; settings: 298.15 K, 101.3 kPa, Liquid; for speed of sound: Sing-around technique in a fixed-path interferometer
[4] = refractive index (Na D-line) (dimensionless); xn = mol fraction of the nth substance listed; settings: 298.15 K, 101.3 kPa, Liquid, Standard Abbe refractometry

CCCO [propan-1-ol]
Settings	mass density [kg/m3]	refractive index	speed of sound [m/s]
[1]	799.75	–	1205.7
[2]	–	1.38304	–

Settings	vapor or sublimation pressure [kPa]
[1], 370.29 K	101.3

CCC(C)CO (stereo unspecified) [2-methyl-1-butanol] + CCCO
Settings	mass density, [3] [kg/m3]	refractive index, [4]	speed of sound, [3] [m/s]
x2 = 0.051	814.37	1.40768	1252.4
x2 = 0.1	813.84	1.40677	1250.6
x2 = 0.151	813.28	1.40573	1248.7
x2 = 0.2	812.71	1.40478	1246.8
x2 = 0.251	812.09	1.4038	1244.7
x2 = 0.3	811.46	1.40272	1242.8
x2 = 0.351	810.8	1.40164	1240.5
x2 = 0.408	810.04	1.40039	1238
x2 = 0.45	809.44	1.39934	1236.1
x2 = 0.501	808.69	1.39815	1233.7
x2 = 0.55	807.94	1.39697	1231.3
x2 = 0.6	807.14	1.39556	1228.8
x2 = 0.65	806.3	1.39422	1226.2
x2 = 0.7	805.38	1.39279	1223.2
x2 = 0.75	804.5	1.39133	1220.7
x2 = 0.801	803.53	1.38982	1217.6
x2 = 0.85	802.6	1.38815	1214.8
x2 = 0.899	801.61	1.38658	1211.8
x2 = 0.949	800.64	1.38483	1208.7

CCC(C)CO (stereo unspecified) [2-methyl-1-butanol]
Settings	mass density [kg/m3]	refractive index	speed of sound [m/s]
[1]	814.87	–	1253.3
[2]	–	1.40872	–

Settings	vapor or sublimation pressure [kPa]
[1], 401.93 K	101.3

CC(C)CCO [3-methylbutan-1-ol]
Settings	mass density [kg/m3]	refractive index	speed of sound [m/s]
[1]	806.78	–	1238.8
[2]	–	1.40515	–

Settings	vapor or sublimation pressure [kPa]
[1], 404.27 K	101.3

CC(C)CCO [3-methylbutan-1-ol] + CCCO
Settings	mass density, [3] [kg/m3]	refractive index, [4]	speed of sound, [3] [m/s]
x2 = 0.05	806.4	1.40447	1234.4
x2 = 0.1	806.12	1.40366	1233.5
x2 = 0.15	805.83	1.40281	1232.3
x2 = 0.201	805.54	1.402	1231.1
x2 = 0.251	805.25	1.40115	1230
x2 = 0.3	804.97	1.4002	1228.8
x2 = 0.351	804.66	1.39919	1227.5
x2 = 0.4	804.37	1.3983	1226.2
x2 = 0.45	804.07	1.39734	1224.9
x2 = 0.5	803.75	1.39621	1223.4
x2 = 0.551	803.41	1.39507	1222
x2 = 0.6	803.08	1.39396	1220
x2 = 0.65	802.72	1.39278	1218.5
x2 = 0.7	802.34	1.39148	1217
x2 = 0.749	801.96	1.39035	1215.3
x2 = 0.799	801.55	1.38898	1213.6
x2 = 0.85	801.13	1.38757	1211.8
x2 = 0.9	800.69	1.3861	1210
x2 = 0.95	800.22	1.38458	1208.2

Reference: the NIST ThermoML archive (doi:10.1021/je0502142)
